Laboratory results: article PMC9030691, “Toxicokinetics of β-Amanitin in Mice and In Vitro Drug–Drug Interaction Potential” (Pharmaceutics, 2022)
“Also recorded” adds a separate entry of the source. Where two headings read alike, the source gives them in different places.

Assays:
Assay type in all cases: in vivo
in vivo = conditions: male ICR mice, n = 4; for AUClast, brain: brain homogenate; for AUClast, heart: heart homogenate; for AUClast, kidney: kidney homogenate; for AUClast, liver: liver homogenate; for AUClast, lung: lung homogenate; for AUClast, spleen: spleen homogenate; for AUC(0-t): mouse, in vivo, plasma, read-out: AUClast, plasma (converted)
Method: Male mice fasted for 12 h with free access to water. Blood, brain, liver, kidney, heart, lung, stomach, intestine, and spleen were collected at 0.5, 1, 2, and 4 h after iv (0.8 mg/kg) injection or at 0.5, 1, 3, and 6 h after oral (10 mg/kg) administration of β-amanitin (n = 4 at each time point). Plasma samples (5 μL each) were harvested by centrifugation at 13,000× g for 3 min at 4 °C. Tissue samples were washed with cold normal saline, weighed, and stored at −80 °C until analysis.
(§1) Concentrations of β-amanitin in biological samples were evaluated following our previous methodology. The standard calibration curves for β-amanitin in mouse plasma ranged from 0.5 to 500 ng/mL and were linear, with a correlation coefficient of 0.9952. The inter- and intra-day accuracy and precision fell within the acceptance criteria (3.1–14.6% of coefficients of variation (CVs) and 92.5–115.0% of accuracy). The extraction recovery and matrix effect of this analytical method were 82.8–88.9% and 93.0–98.6%.
Each tissue and feces sample was homogenized in water (1:3, w/v). In total, 50 μL aliquots of urine, tissue homogenates, or feces homogenates were mixed with 150 μL of 4′-hydroxydiclofenac solution (IS, 5 ng/mL in methanol). The other steps were as described for plasma sample preparation.
Toxicokinetics of β-Amanitin in Mice and In Vitro Drug–Drug
Young Yoon Bang, Im-Sook Song, Min Seo Lee, Chang Ho Lim, Yong-Yeon Cho, Joo Young Lee, Han Chang Kang […]
1. Liquid chromatography-high resolution mass spectrometry (LC-HRMS) of β-amani-tin in various tissue samples
Blood, brain, liver, kidney, heart, lung, stomach, intestine, and spleen tissues were collected, washed with cold normal saline, and weighted. Tissue samples were homoge-nized in water (1:3, w/v) and 50 μL aliquots of tissue homogenates were mixed with 150 μL of 4’-hydroxydiclofenac solution (IS, 5 ng/mL in methanol) and vortexed for 2 min. The mixture was centrifuged at 13,000 rpm at 4 °C for 5 min, and the supernatant was then transferred to an autosampler vial. An aliquot (5 μL) was injected into the LC-HRMS sys-tem for analysis, according to the previous methods. The standard calibration curves for β-amanitin in various tissue homogenates were prepared individually using the re-spective blank tissue homogenates. Each calibration standard curve was validated using the quality control (QC) samples.
As results, the standard calibration curves for β-amanitin in various tissue homoge- […]
the quality control samples prepared in various tissue homogenates were all in acceptance criteria (Supplementary Table 1).
Table S1. Concentration ranges, representative regression equation, and correlation coefficients of the calibration curves and precision (coefficient of variation, CV) and accuracy values for β-amanitin […]
Tissue Concentration Representative regression Correlation range (ng/g tissue) equation coefficient QC (ng/g tissue) Intra-day (n = 5) Accuracy (%) CV (%) […]

mice = test: Death or toxicity observed during the toxicokinetic study; conditions: male ICR mice
Method: β-amanitin was dissolved in water and administered by iv bolus injection into the tail vein of mice at doses of 0.2 (n = 8), 0.4 (n = 6), and 0.8 (n = 7) mg/kg. Blood samples (approximately 15 μL) were collected from the retro-orbital plexus under light anesthesia with isoflurane at 0.033, 0.083, 0.25, 0.5, 0.75, 1, 1.5, 2, 3, 4, 6, and 8 h after drug administration.
(§2) β-amanitin was dissolved in water and administered to mice by gavage at doses of 2 (n = 7), 5 (n = 9), and 10 (n = 7) mg/kg. Blood samples (approximately 15 μL) were collected from the retro-orbital plexus under light anesthesia with isoflurane at 0.033, 0.083, 0.166, 0.25, 0.5, 0.75, 1, 1.5, 2, 4, 6, and 8 h after drug administration. Plasma samples (5 μL each) were harvested by centrifugation at 13,000× g for 3 min at 4 °C and stored at −80 °C until analysis.

[1] = Toxicokinetics after oral administration in mice; conditions: male ICR mice; for bioavailability / Tmax / Cmax / half-life / AUC(0-inf) / AUC(0-t): mouse; for bioavailability / Tmax / Cmax / AUC(0-inf) / AUC(0-t): plasma; for bioavailability: (dose normalized AUCPO/dose normalized AUCIV) × 100, mean ± SD, read-out: F (oral bioavailability); for Tmax: median with range in parentheses; for Cmax: fasted; for Cmax / AUC(0-inf) / AUC(0-t): LC-HRMS; for Cmax / half-life / AUC(0-inf) / AUC(0-t): mean ± SD; for half-life: plasma elimination half-life; for AUC(0-inf) / AUC(0-t): non-compartmental
Method: The Institutional Animal Care and Use Committee of the Catholic University of Korea (approval number, CUK-IACUC-2021-004; approval date, 21 March 2021) approved the study protocol. Male ICR mice (8 weeks of age, 27.4 ± 2.3 g) were purchased from Orient Bio Inc. (Seongnam, Korea). Mice were kept in plastic cages with unlimited access to a standard mouse diet (Orient Bio) and water before the experiments. For oral administration, mice were fasted for at least 12 h but allowed free access to water.
as §2, §1
An aliquot (5 μL) of plasma sample was mixed with 15 μL of 4′-hydroxydiclofenac (internal standard (IS), 5 ng/mL) in methanol and vortexed for 2 min. The mixture was centrifuged at 13,000× g at 4 °C for 5 min, and the supernatant was then transferred to an autosampler vial. An aliquot (5 μL) was injected into the LC-HRMS system for analysis.
The toxicokinetic parameters of β-amanitin were analyzed by non-compartmental analyses (WinNonlin, Pharsight; Mountain View, CA, USA) (Table 1). Data were expressed as mean ± standard deviations (SD). Comparisons of data between groups were performed using one-way ANOVA or Student t-test. Values of p < 0.05 were considered statistically significant.

[2] = iv 0.8 mg/kg, sampled 0.5, 1, 2, 4 h, LC-HRMS, mean ± SD
[3] = po 10 mg/kg, sampled 0.5, 1, 3, 6 h, LC-HRMS, mean ± SD
[4] = oral 2, 5 and 10 mg/kg, range of the dose-group means

## CC[C@H](C)[C@@H]1NC(=O)CNC(=O)[C@@H]2Cc3c([nH]c4cc(O)ccc34)[S@+]([O-])C[C@H](NC(=O)CNC1=O)C(=O)N[C@@H](CC(=O)O)C(=O)N1C[C@H](O)C[C@H]1C(=O)N[C@@H]([C@@H](C)[C@@H](O)CO)C(=O)N2 [β-amanitin]
In vivo; iv 0.8 mg/kg, sampled 0.5, 1, 2, 4 h, LC-HRMS
  AUClast, brain: -
In vivo; [2]
  AUClast, heart: 13,397 ± 908 ng⋅min/g
  AUClast, kidney: 142,023 ± 7510 ng⋅min/g
  AUClast, liver: 25,780 ± 2440 ng⋅min/g
  AUClast, lung: 35,970 ± 3070 ng⋅min/g
  AUClast, spleen: 137,855 ± 11,949 ng⋅min/g
  AUC(0-t): 910 ng·h/mL
In vivo; iv 0.8 mg/kg
  Tissue to plasma (AUC) ratio, heart: 0.2
  Tissue to plasma (AUC) ratio, liver: 0.5
  Tissue to plasma (AUC) ratio, lung: 0.7
In vivo; iv 0.8 mg/kg, 0.8 mg/kg
  Tissue to plasma (AUC) ratio, kidney: 2.6
  Tissue to plasma (AUC) ratio, spleen: 2.5
In vivo; po 10 mg/kg, sampled 0.5, 1, 3, 6 h, LC-HRMS
  AUClast, brain: -
In vivo; [3]
  AUClast, heart: 12,563 ± 2696 ng⋅min/g
  AUClast, kidney: 158,677 ± 84,620 ng⋅min/g
  AUClast, liver: 12,665 ± 11,731 ng⋅min/g
  AUClast, lung: 37,831 ± 11,434 ng⋅min/g
  AUClast, spleen: 42,409 ± 33,867 ng⋅min/g
  AUC(0-t): 394 ng·h/mL
In vivo; po 10 mg/kg, intestine homogenate, sampled 0.5, 1, 3, 6 h, LC-HRMS, mean ± SD
  AUClast, intestine: 2,066,298 ± 492,689 ng⋅min/g
In vivo; po 10 mg/kg
  Tissue to plasma (AUC) ratio, heart: 0.5
  Tissue to plasma (AUC) ratio, intestine: 87.3
  Tissue to plasma (AUC) ratio, liver: 0.5
  Tissue to plasma (AUC) ratio, lung: 1.6
  Tissue to plasma (AUC) ratio, spleen: 1.8
  Tissue to plasma (AUC) ratio, stomach: 28.8
In vivo; po 10 mg/kg, stomach homogenate, sampled 0.5, 1, 3, 6 h, LC-HRMS, mean ± SD
  AUClast, stomach: 680,749 ± 137,691 ng⋅min/g
mice; iv bolus via tail vein 0.2, 0.4 and 0.8 mg/kg
  Death or serious toxicity after intravenous bolus administration: did not cause death or serious toxicity; also recorded: did not cause toxicity
mice; oral gavage 2, 5 and 10 mg/kg
  Death or serious toxicity after oral administration: did not cause death or serious toxicity; also recorded: did not cause toxicity
[1]; oral 2, 5 and 10 mg/kg, range of individual values
  Tmax, range over the oral doses: 10~120 min
[1]; [4]
  Absolute (oral) bioavailability, range over the oral doses: 7.3–9.4%
  t1/2, range over the oral doses: 105.0~132.0 min
[1]; oral gavage 2 mg/kg, n = 7
  bioavailability: 9.4 ± 4.9%
  Tmax: 1 h
  half-life: 1.75 ± 1.57 h
  AUC(0-inf): 191 ng·h/mL
  AUC(0-t): 181 ng·h/mL
[1]; oral gavage 5 mg/kg, n = 9
  bioavailability: 8.1 ± 4.3%
  Tmax: 1.5 h
  half-life: 2.2 ± 0.838 h
  AUC(0-inf): 438 ng·h/mL
  AUC(0-t): 391 ng·h/mL
[1]; oral gavage 10 mg/kg, n = 7
  bioavailability: 7.3 ± 3.1%
  Tmax: 1 h
  half-life: 2.17 ± 1.31 h
  AUC(0-inf): 810 ng·h/mL
  AUC(0-t): 698 ng·h/mL
[1]; oral gavage 2 mg/kg in water, n = 7
  Cmax: 67.1 ± 18.6 ng/mL
[1]; oral gavage 5 mg/kg in water, n = 9
  Cmax: 140 ± 116 ng/mL
[1]; oral gavage 10 mg/kg in water, n = 7
  Cmax: 360 ± 385 ng/mL
